Source: patent US20240218022A1, “ANTI-VISTA MACROCYCLIC PEPTIDES AND COMPOSITIONS” (BRISTOL-MYERS SQUIBB COMPANY, priority 2022, published 2024)
Positions of bridges follow the written chain, without caps; N, C: chain ends. Non-standard residues stand in square brackets, D forms with d. Residues, ends and D or L forms follow the SMILES beside them. ξ: configuration not given here. Cit = NC(=O)NCCC[C@H](N)C(=O)O; Gly(cPr) = N[C@H](C(=O)O)C1CC1; Ile(3ξ) = CCC(C)[C@H](N)C(=O)O; Ahp(2) = CCCCC[C@H](N)C(=O)O; NMeNle = CCCC[C@H](NC)C(=O)O; Tle = CC(C)(C)[C@H](N)C(=O)O; NHexGly = CCCCCCNCC(=O)O; Nle = CCCC[C@H](N)C(=O)O

Molecular target: T1, mouse VISTA (mVISTA) (Mus musculus, UniProt Q9D659)
T1 construct: expressed in transfected cells; host or cells: Human embryonic kidney 293T cells
T1 sequence (Q9D659 33-308): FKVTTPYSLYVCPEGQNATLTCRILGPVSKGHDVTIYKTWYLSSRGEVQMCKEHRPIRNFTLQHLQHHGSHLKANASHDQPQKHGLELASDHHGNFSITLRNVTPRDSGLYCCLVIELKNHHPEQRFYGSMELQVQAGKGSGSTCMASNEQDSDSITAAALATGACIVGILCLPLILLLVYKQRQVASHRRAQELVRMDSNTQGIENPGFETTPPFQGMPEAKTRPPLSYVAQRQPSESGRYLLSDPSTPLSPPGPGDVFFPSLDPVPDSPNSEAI
Experiment: Cell-Based Binding High-Content Assay For mVISTA (HC CBA mVISTA)
Conditions: read-out: HC CBA mVISTA IC50
How it was run: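 293T cells expressing mouse VISTA, with compounds added either after seeding ("no wash") or before seeding and then washed out after 1 h. Biotinylated peptide 2 nM for 30 min at room temperature, then detection with Alexa 647–streptavidin. After fixation with Hoechst stain, plates were high-content imaged; IC50 from four-parameter logistic fit.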

Compound: CCCCCCN1CC(=O)N[C@@H](Cc2ccc(O)cc2)C(=O)N[C@@H](CCCC)C(=O)N[C@@H](CC(N)=O)C(=O)N[C@@H](CCCNC(=N)N)C(=O)N(C)[C@@H](CCCC)C(=O)N[C@@H](CCCCC)C(=O)N2CCC[C@H]2C(=O)N[C@@H](C(C)C)C(=O)N[C@@H](CCCNC(=N)N)C(=O)N[C@H](C(=O)NCC(=O)O)CSCC(=O)N[C@@H](Cc2ccccc2)C(=O)N[C@@H](Cc2c[nH]c3ccccc23)C(=O)N[C@@H](CC(=O)O)C1=O [Example 1380] ({CH2CO}-FWD[NHexGly]Y[Nle]NR[NMeNle][Ahp(2)]PVRCG-OH; thioether N-14)
- IC50: 12.1 nM

Compound: CCCCCCN1CC(=O)N[C@@H](Cc2ccc(O)cc2)C(=O)N[C@@H](CCCC)C(=O)N[C@@H](CC(N)=O)C(=O)N[C@@H](CCCNC(=N)N)C(=O)N(C)[C@@H](CCCC)C(=O)N[C@@H](CCCCC)C(=O)N2CCC[C@H]2C(=O)N[C@@H](C(C)C)C(=O)N[C@@H](CC(N)=O)C(=O)N[C@H](C(=O)NCC(=O)O)CSCC(=O)N[C@@H](Cc2ccccc2)C(=O)N[C@@H](Cc2c[nH]c3ccccc23)C(=O)N[C@@H](CC(=O)O)C1=O [Example 1381] ({CH2CO}-FWD[NHexGly]Y[Nle]NR[NMeNle][Ahp(2)]PVNCG-OH; thioether N-14)
- IC50: 20.3 nM

Compound: CCCCCCN1CC(=O)N[C@@H](Cc2ccc(O)cc2)C(=O)N[C@@H](CCCC)C(=O)N[C@@H](CC(N)=O)C(=O)N[C@@H](CCCNC(=N)N)C(=O)N(C)[C@@H](CCCC)C(=O)N[C@@H](CCCCC)C(=O)N2CCC[C@H]2C(=O)N[C@@H](C(C)C)C(=O)N[C@@H](CO)C(=O)N[C@H](C(=O)NCC(=O)O)CSCC(=O)N[C@@H](Cc2ccccc2)C(=O)N[C@@H](Cc2c[nH]c3ccccc23)C(=O)N[C@@H](CC(=O)O)C1=O [Example 1382] ({CH2CO}-FWD[NHexGly]Y[Nle]NR[NMeNle][Ahp(2)]PVSCG-OH; thioether N-14)
- IC50: 17.2 nM

Compound: CCCCCCN1CC(=O)N[C@@H](Cc2ccc(O)cc2)C(=O)N[C@@H](CCCC)C(=O)N[C@@H](CC(N)=O)C(=O)N[C@@H](CCCNC(=N)N)C(=O)N(C)[C@@H](CCCC)C(=O)N[C@@H](CCCCC)C(=O)N2CCC[C@H]2C(=O)N[C@@H](C(C)C)C(=O)N[C@@H](C(C)C)C(=O)N[C@H](C(=O)NCC(=O)O)CSCC(=O)N[C@@H](Cc2ccccc2)C(=O)N[C@@H](Cc2c[nH]c3ccccc23)C(=O)N[C@@H](CC(=O)O)C1=O [Example 1383] ({CH2CO}-FWD[NHexGly]Y[Nle]NR[NMeNle][Ahp(2)]PVVCG-OH; thioether N-14)
- IC50: 16.9 nM

Compound: CCCCCCN1CC(=O)N[C@@H](Cc2ccc(O)cc2)C(=O)N[C@@H](CCCCC)C(=O)N[C@@H](CC(N)=O)C(=O)N[C@@H](CCCNC(=N)N)C(=O)N(C)[C@@H](CCCC)C(=O)N[C@@H](CCCCC)C(=O)N2CCC[C@H]2C(=O)N[C@@H](C(C)C)C(=O)N[C@@H](CO)C(=O)N[C@H](C(=O)NCC(=O)O)CSCC(=O)N[C@@H](Cc2ccccc2)C(=O)N[C@@H](Cc2c[nH]c3ccccc23)C(=O)N[C@@H](CC(=O)O)C1=O [Example 1384] ({CH2CO}-FWD[NHexGly]Y[Ahp(2)]NR[NMeNle][Ahp(2)]PVSCG-OH; thioether N-14)
- IC50: 10.9 nM

Compound: CCCCCCN1CC(=O)N[C@@H](Cc2ccc(O)cc2)C(=O)N[C@@H](CCCCC)C(=O)N[C@@H](CC(N)=O)C(=O)N[C@@H](CCCNC(=N)N)C(=O)N(C)[C@@H](CCCC)C(=O)N[C@@H](CCCCC)C(=O)N2CCC[C@H]2C(=O)N[C@@H](C(C)C)C(=O)N[C@@H](C(C)C)C(=O)N[C@H](C(=O)NCC(=O)O)CSCC(=O)N[C@@H](Cc2ccccc2)C(=O)N[C@@H](Cc2c[nH]c3ccccc23)C(=O)N[C@@H](CC(=O)O)C1=O [Example 1385] ({CH2CO}-FWD[NHexGly]Y[Ahp(2)]NR[NMeNle][Ahp(2)]PVVCG-OH; thioether N-14)
- IC50: 10.5 nM

Compound: CCCCCCN1CC(=O)N[C@@H](Cc2ccc(O)cc2)C(=O)N[C@@H](CCCCC)C(=O)N[C@@H](CC(N)=O)C(=O)N[C@@H](CCCNC(=N)N)C(=O)N(C)[C@@H](CCCC)C(=O)N[C@@H](CCCCC)C(=O)N2CCC[C@H]2C(=O)N[C@@H](C(C)C)C(=O)N[C@@H](CC(=O)O)C(=O)N[C@H](C(=O)NCC(=O)O)CSCC(=O)N[C@@H](Cc2ccccc2)C(=O)N[C@@H](Cc2c[nH]c3ccccc23)C(=O)N[C@@H](CC(=O)O)C1=O [Example 1386] ({CH2CO}-FWD[NHexGly]Y[Ahp(2)]NR[NMeNle][Ahp(2)]PVDCG-OH; thioether N-14)
- IC50: 8.8 nM

Compound: CCCCCCN1CC(=O)N[C@@H](Cc2ccc(O)cc2)C(=O)N[C@@H](CCCC)C(=O)N[C@@H](CC(N)=O)C(=O)N[C@@H](CCCNC(N)=O)C(=O)N(C)[C@@H](CCCC)C(=O)N[C@@H](CCCCC)C(=O)N2CCC[C@H]2C(=O)N[C@@H](C(C)C)C(=O)N[C@@H](CC(=O)O)C(=O)N[C@H](C(=O)NCC(=O)O)CSCC(=O)N[C@@H](Cc2ccccc2)C(=O)N[C@@H](Cc2c[nH]c3ccccc23)C(=O)N[C@@H](CC(=O)O)C1=O [Example 1387] ({CH2CO}-FWD[NHexGly]Y[Nle]N[Cit][NMeNle][Ahp(2)]PVDCG-OH; thioether N-14)
- IC50: 5.3 nM

Compound: CCCCCCN1CC(=O)N[C@@H](Cc2ccc(O)cc2)C(=O)N[C@@H](CCCC)C(=O)N[C@@H](CC(N)=O)C(=O)N[C@@H](CCCNC(N)=O)C(=O)N(C)[C@@H](CCCC)C(=O)N[C@@H](CCCCC)C(=O)N2CCC[C@H]2C(=O)N[C@@H](C(C)CC)C(=O)N[C@@H](CO)C(=O)N[C@H](C(=O)NCC(N)=O)CSCC(=O)N[C@@H](Cc2ccccc2)C(=O)N[C@@H](Cc2c[nH]c3ccccc23)C(=O)N[C@@H](CC(=O)O)C1=O (stereo partly drawn) [Example 1388] ({CH2CO}-FWD[NHexGly]Y[Nle]N[Cit][NMeNle][Ahp(2)]P[Ile(3ξ)]SCG-NH2; thioether N-14)
- IC50: 16.4 nM

Compound: CCCCCCN1CC(=O)N[C@@H](Cc2ccc(O)cc2)C(=O)N[C@@H](CCCC)C(=O)N[C@@H](CC(N)=O)C(=O)N[C@@H](CCCNC(=N)N)C(=O)N(C)[C@@H](CCCC)C(=O)N[C@@H](CCCCC)C(=O)N2CCC[C@H]2C(=O)N[C@@H](C2CC2)C(=O)N[C@@H](CO)C(=O)N[C@H](C(=O)NCC(N)=O)CSCC(=O)N[C@@H](Cc2ccccc2)C(=O)N[C@@H](Cc2c[nH]c3ccccc23)C(=O)N[C@@H](CC(=O)O)C1=O [Example 1389] ({CH2CO}-FWD[NHexGly]Y[Nle]NR[NMeNle][Ahp(2)]P[Gly(cPr)]SCG-NH2; thioether N-14)
- IC50: 34.4 nM

Compound: CCCCCCN1CC(=O)N[C@@H](Cc2ccc(O)cc2)C(=O)N[C@@H](CCCC)C(=O)N[C@@H](CC(N)=O)C(=O)N[C@@H](CCCNC(N)=O)C(=O)N(C)[C@@H](CCCC)C(=O)N[C@@H](CCCCC)C(=O)N2CCC[C@H]2C(=O)N[C@@H](C(C)(C)C)C(=O)N[C@@H](CO)C(=O)N[C@H](C(=O)NCC(N)=O)CSCC(=O)N[C@@H](Cc2ccccc2)C(=O)N[C@@H](Cc2c[nH]c3ccccc23)C(=O)N[C@@H](CC(=O)O)C1=O [Example 1390] ({CH2CO}-FWD[NHexGly]Y[Nle]N[Cit][NMeNle][Ahp(2)]P[Tle]SCG-NH2; thioether N-14)
- IC50: 25.2 nM

Compound: CCCCCCN1CC(=O)N[C@@H](Cc2ccc(O)cc2)C(=O)N[C@@H](CCCC)C(=O)N[C@@H](CC(N)=O)C(=O)N[C@@H](CCCNC(=N)N)C(=O)N(C)[C@@H](CCCC)C(=O)N[C@@H](CCCCC)C(=O)N2CCC[C@H]2C(=O)N[C@@H](C(C)(C)C)C(=O)N[C@@H](CO)C(=O)N[C@H](C(=O)NCC(N)=O)CSCC(=O)N[C@@H](Cc2ccccc2)C(=O)N[C@@H](Cc2c[nH]c3ccccc23)C(=O)N[C@@H](CC(=O)O)C1=O [Example 1391] ({CH2CO}-FWD[NHexGly]Y[Nle]NR[NMeNle][Ahp(2)]P[Tle]SCG-NH2; thioether N-14)
- IC50: 36.3 nM
